Experimental data published in the NIST ThermoML archive (doi:10.1016/j.jct.2016.03.029).
± gives the expanded uncertainty stated by the source.

Experiments:
[1] = 100 kPa, Liquid; for speed of sound: Frequency=3 MHz, Sing-around technique in a fixed-path interferometer; for mass density: Vibrating tube method
[2] = refractive index (Na D-line) (dimensionless); settings: 100 kPa, Liquid, Standard Abbe refractometry
[3] = xn = mol fraction of the nth substance listed; settings: 100 kPa, Liquid, x2 = 0; for speed of sound: Frequency=3 MHz, Sing-around technique in a fixed-path interferometer; for mass density: Vibrating tube method
[4] = refractive index (Na D-line) (dimensionless); xn = mol fraction of the nth substance listed; settings: 100 kPa, Liquid, Standard Abbe refractometry, x2 = 0

CCCC[n+]1ccn(C)c1.O=S(=O)([N-]S(=O)(=O)C(F)(F)F)C(F)(F)F
speed of sound ([1]; 298.15 K): 1227.9 ± 1.3 m/s
mass density ([1]; 298.15 K): 1433.72 ± 1 kg/m3
speed of sound ([1]; 303.15 K): 1216.8 ± 1.3 m/s
mass density ([1]; 303.15 K): 1428.92 ± 1 kg/m3
speed of sound ([1]; 308.15 K): 1205.8 ± 1.2 m/s
mass density ([1]; 308.15 K): 1424.13 ± 1 kg/m3
speed of sound ([1]; 313.15 K): 1195 ± 1.2 m/s
mass density ([1]; 313.15 K): 1419.36 ± 1 kg/m3
speed of sound ([1]; 318.15 K): 1184.2 ± 1.2 m/s
mass density ([1]; 318.15 K): 1414.61 ± 1 kg/m3
speed of sound ([1]; 323.15 K): 1173.6 ± 1.2 m/s
mass density ([1]; 323.15 K): 1409.88 ± 1 kg/m3
refractive index ([2]; 298.15 K): 1.42671 ± 0.00085
refractive index ([2]; 303.15 K): 1.42522 ± 0.00085
refractive index ([2]; 308.15 K): 1.42373 ± 0.00085
refractive index ([2]; 313.15 K): 1.42225 ± 0.00085
refractive index ([2]; 318.15 K): 1.42076 ± 0.00085
refractive index ([2]; 323.15 K): 1.41923 ± 0.00085

CN1CCCC1=O [N-methylpyrrolidone]
speed of sound ([1]; 298.15 K): 1543.8 ± 1.4 m/s
mass density ([1]; 298.15 K): 1027.1 ± 1 kg/m3
speed of sound ([1]; 303.15 K): 1524.3 ± 1.4 m/s
mass density ([1]; 303.15 K): 1022.64 ± 1 kg/m3
speed of sound ([1]; 308.15 K): 1505 ± 1.4 m/s
mass density ([1]; 308.15 K): 1018.18 ± 1 kg/m3
speed of sound ([1]; 313.15 K): 1485.7 ± 1.4 m/s
mass density ([1]; 313.15 K): 1013.72 ± 1 kg/m3
speed of sound ([1]; 318.15 K): 1466.7 ± 1.4 m/s
mass density ([1]; 318.15 K): 1009.25 ± 1 kg/m3
speed of sound ([1]; 323.15 K): 1447.8 ± 1.4 m/s
mass density ([1]; 323.15 K): 1004.79 ± 1 kg/m3
refractive index ([2]; 298.15 K): 1.46838 ± 0.00086
refractive index ([2]; 303.15 K): 1.46626 ± 0.00086
refractive index ([2]; 308.15 K): 1.46412 ± 0.00086
refractive index ([2]; 313.15 K): 1.46199 ± 0.00086
refractive index ([2]; 318.15 K): 1.45983 ± 0.00086
refractive index ([2]; 323.15 K): 1.45771 ± 0.00086

CN1CCCC1=O [N-methylpyrrolidone] + CCCC[n+]1ccn(C)c1.O=S(=O)([N-]S(=O)(=O)C(F)(F)F)C(F)(F)F
speed of sound ([3]; 298.15 K): 1543.8 ± 1.4 m/s
mass density ([3]; 298.15 K): 1027.1 ± 1 kg/m3
speed of sound ([3]; 303.15 K): 1524.3 ± 1.4 m/s
mass density ([3]; 303.15 K): 1022.64 ± 1 kg/m3
speed of sound ([3]; 308.15 K): 1505 ± 1.4 m/s
mass density ([3]; 308.15 K): 1018.18 ± 1 kg/m3
speed of sound ([3]; 313.15 K): 1485.7 ± 1.4 m/s
mass density ([3]; 313.15 K): 1013.72 ± 1 kg/m3
speed of sound ([3]; 318.15 K): 1466.7 ± 1.4 m/s
mass density ([3]; 318.15 K): 1009.25 ± 1 kg/m3
speed of sound ([3]; 323.15 K): 1447.8 ± 1.4 m/s
mass density ([3]; 323.15 K): 1004.79 ± 1 kg/m3
refractive index ([4]; 298.15 K): 1.46838 ± 0.00086
refractive index ([4]; 303.15 K): 1.46626 ± 0.00086
refractive index ([4]; 308.15 K): 1.46412 ± 0.00086
refractive index ([4]; 313.15 K): 1.46199 ± 0.00086
refractive index ([4]; 318.15 K): 1.45983 ± 0.00086
refractive index ([4]; 323.15 K): 1.45771 ± 0.00086
